Values after ≈ are worked out from the molar mass of the structure shown. Where two headings read alike, the source gives them in different places.
Columns and labels:
[1] = system: Staphylococcus aureus ATCC 25923; test: Minimal inhibition concentration (dilution + diffusion-well); format: cell-based; conditions: ATCC25923, 37 °C, 18 h
Experimental: The MIC was performed for compounds and strains sensitive to their action in the antagonistic test. Minimum inhibitory concentration was determined by combining the dilution method with the diffusion-well method. Test compounds at a concentration of 500 μM were prepared in 5% (w/w) DMSO. Surface layer of microorganisms, against which antagonistic activity was noted, were prepared in the same way as for the antagonistic test. Then, two-fold sequential dilutions of the test compounds in the range of 500 µM to 62.5 µM were prepared. Wells with a diameter of 8 mm cut in the Mueller–Hinton Agar (Merck, Darmstadt, Germany) with the test strain were added with 50 µL of the prepared dilutions, which corresponded to the following concentrations of the tested compounds: […], 1.25 mM, 0.625 mM, and […]. Petri dishes prepared in this way were incubated at 37 °C for 18 h. After a given time, the MIC value was read. The MIC concentration expressed in µM was the first concentration of the tested compounds at which growth inhibition of the test strain was observed.

[2] = Phase solubility studies with HP-β-CD; format: physicochemical
Experimental: The purpose of this part of the study was to determine the solubility of compounds of hesperetin and its Schiff bases (HHSB, HIN, and HTSC) in aqueous solution at different pHs and temperatures, and the effect of their inclusion in modified HP-β-CD on the aqueous solubility of these compounds at different pH values.
The effect of the presence of HP-β-CD at different temperatures (25, 37, and 60 °C) was determined by developing phase solubility diagrams.
In accordance with the methodology described in Section 3.4, excess amounts of each tested substance were added to aqueous solution with increasing concentration of HP-β-CD up to 16 mM, respectively, in 2 mL of 100 mM sodium acetate buffer (pH 3.6), 100 mM sodium phosphate buffer (pH 6.5) or 100 mM sodium borate buffer (pH 8.5).
Phase solubility studies were conducted according to [64] with some modifications. Excess amounts of each tested substance were added to aqueous solution with increasing concentration of HP-β-CD up to 16 mM, in 2 mL of 100 mM sodium acetate buffer (pH 3.6), 100 mM sodium phosphate buffer (pH 6.5), or 100 mM sodium borate buffer (pH 8.5), respectively. The samples were maintained in an ultrasonic bath at various temperatures (25, 37, and 60 °C) for 60 min to reach equilibrium. The aqueous solutions were then filtered through 0.45 µm acetate cellulose (CA) membrane filter and diluted. The tested compound concentration on each clear filtrate was spectrophotometrically determined by measuring at their wavelength maximum.
The complexation constant (Kc) between studied molecules and HP-β-CD was determined by using Equation (1):(1) Kc=slope/S0 (1−slope) where S0 means the water solubility of the studied substance, and “slope” means the slope of the phase solubility diagram.
Complexation efficiency was calculated from the slope of the phase solubility diagram using Equation (2):(2) CE=S0×Kc=slope/1−slope
The CE was also applied to evaluate the molar ratio in solution of tested systems using Equation (3):(3) Compound:HP−β−CD=1:(1+1/CE)

[3] = DPPH assay (antioxidant activity); conditions: concentration 0.1 mg/mL, mean ± SD
Experimental: (§1) To evaluate the antioxidant ability of the tested systems, antioxidant analysis was performed. Antioxidants can scavenge hydroxyl radicals in two ways: by reacting directly with hydroxyl radicals (DPPH^•, ABTS^•+) or indirectly inhibiting the formation of hydroxyl radicals by chelating metal ions involved in the production of hydroxyl radicals. The antioxidant activity of the systems studied was investigated by using DPPH^• scavenging, ABTS^•+ scavenging ability, and Fe^2+-chelating ability. In this study, the antioxidant activity of pure hesperetin and its Schiff bases (HHSB, HIN, and HTSC) and HP-β-CD complexes were compared, and the positive control was Trolox.
The detailed methodology of DPPH assay was described in the previous paper by Sykuła et al..

[4] = ABTS^•+ radical cation decolorization assay; conditions: concentration 0.1 mg/mL, mean ± SD
Experimental: as §1
Antioxidant activity using ABTS^•+ cation radical scavenging was determined according to a modified method. ABTS solution (2.5 mM) was mixed with 1.0 mM potassium persulfate solution and left at room temperature in the dark for 12-24 h. After this time, the absorbance of the finished ABTS^•+ solution was corrected with ethanol to 0.70 ± 0.02 at 745 nm. A total of 100 µL of the sample was reacted for 5 min with 2 mL of ABTS^•+ solution (A745 nm = 0.70 ± 0.02). The absorbance value of the reaction mixture was measured at 745 nm. […] Scavenging activity (%) = [1 − (Asample − Ablank)/Acontrol] × 100%(4) where Acontrol is the absorbance value of the control (ABTS^•+ solution with water), Ablank is the absorbance value of samples mixed with anhydrous ethanol, and Asample is the absorbance value of the added test sample to ABTS^•+ solution at 745 nm, respectively.

`COc1ccc(C2C/C(=N\NC(=O)c3ccncc3)c3c(O)cc(O)cc3O2)cc1O` (racemic) [HIN] showed an MIC [1] of 2.5 µM, a CE complexation efficiency ([2]; 25 °C, pH 3.6, with HP-β-CD) of 0.7% and a Kc complexation constant ([2]; 25 °C, pH 3.6, with HP-β-CD) of 102 ± 43 M⁻¹. It also gave a CE complexation efficiency ([2]; 25 °C, pH 6.5, with HP-β-CD) of 0.2%, a Kc complexation constant ([2]; 25 °C, pH 6.5, with HP-β-CD) of 39 ± 3.6 M⁻¹ and a CE complexation efficiency ([2]; 25 °C, pH 8.5, with HP-β-CD) of 1.3%. For the same compound, the Kc complexation constant ([2]; 25 °C, pH 8.5, with HP-β-CD) was 143 ± 1.6 M⁻¹, the CE complexation efficiency ([2]; 37 °C, pH 3.6, with HP-β-CD) was 1.3% and the Kc complexation constant ([2]; 37 °C, pH 3.6, with HP-β-CD) was 145 ± 13 M⁻¹. The CE complexation efficiency ([2]; 37 °C, pH 6.5, with HP-β-CD) was 0.04%, the Kc complexation constant ([2]; 37 °C, pH 6.5, with HP-β-CD) was 25 ± 3.9 M⁻¹ and the CE complexation efficiency ([2]; 37 °C, pH 8.5, with HP-β-CD) was 0.04%. For the same compound, the Kc complexation constant ([2]; 37 °C, pH 8.5, with HP-β-CD) was 28 ± 3.9 M⁻¹, the “increase of solubility with HP-β-CD” value ([2]; 60 °C, pH 3.6) was “five-fold” and the CE complexation efficiency ([2]; 60 °C, pH 3.6, with HP-β-CD) was 0.3%. For the same compound, the Kc complexation constant ([2]; 60 °C, pH 3.6, with HP-β-CD) was 62 ± 1.7 M⁻¹, the “increase of solubility with HP-β-CD” value ([2]; 60 °C, pH 6.5) was “five-fold” and the CE complexation efficiency ([2]; 60 °C, pH 6.5, with HP-β-CD) was 0.3%. It also gave a Kc complexation constant ([2]; 60 °C, pH 6.5, with HP-β-CD) of 61 ± 2.6 M⁻¹, a CE complexation efficiency ([2]; 60 °C, pH 8.5, with HP-β-CD) of 3.7% and a Kc complexation constant ([2]; 60 °C, pH 8.5, with HP-β-CD) of 132 ± 23 M⁻¹. The solubility at 60 min ([2]; aqueous buffer solutions, 25 °C, pH 3.6 to 8.5, read-out: solubility, increasing trend with increasing pH) was 17 to 90 µM (≈ 7.16 to 37.9 µg/mL), the solubility at 60 min ([2]; aqueous buffer, thermodynamic from solid, 25 °C, pH 3.6 sodium acetate buffer, without cyclodextrin, read-out: solubility without HP-β-CD (value in brackets) (converted)) was 29 µM (≈ 12.2 µg/mL) and the solubility at 60 min ([2]; aqueous buffer, thermodynamic from solid, 25 °C, pH 6.5 sodium phosphate buffer, without cyclodextrin, read-out: solubility without HP-β-CD (value in brackets) (converted)) was 17 µM (≈ 7.16 µg/mL). For the same compound, the solubility at 60 min ([2]; aqueous buffer, thermodynamic from solid, 25 °C, pH 8.5 sodium borate buffer, without cyclodextrin, read-out: solubility without HP-β-CD (value in brackets) (converted)) was 20 µM (≈ 8.43 µg/mL), the solubility at 60 min ([2]; aqueous buffer, thermodynamic from solid, 37 °C, pH 3.6 sodium acetate buffer, without cyclodextrin, read-out: solubility without HP-β-CD (value in brackets) (converted)) was 20 µM (≈ 8.43 µg/mL) and the solubility at 60 min ([2]; aqueous buffer, thermodynamic from solid, 37 °C, pH 6.5 sodium phosphate buffer, without cyclodextrin, read-out: solubility without HP-β-CD (value in brackets) (converted)) was 1 µM (≈ 0.421 µg/mL). For the same compound, the solubility at 60 min ([2]; aqueous buffer, thermodynamic from solid, 37 °C, pH 8.5 sodium borate buffer, without cyclodextrin, read-out: solubility without HP-β-CD (value in brackets) (converted)) was 1 µM (≈ 0.421 µg/mL), the solubility at 60 min ([2]; aqueous buffer, thermodynamic from solid, 60 °C, pH 3.6 sodium acetate buffer, without cyclodextrin, read-out: solubility without HP-β-CD (value in brackets) (converted)) was 8 µM (≈ 3.37 µg/mL) and the solubility at 60 min ([2]; aqueous buffer, thermodynamic from solid, 60 °C, pH 6.5 sodium phosphate buffer, without cyclodextrin, read-out: solubility without HP-β-CD (value in brackets) (converted)) was 8 µM (≈ 3.37 µg/mL). The solubility at 60 min ([2]; aqueous buffer, thermodynamic from solid, 60 °C, pH 8.5 sodium borate buffer, without cyclodextrin, read-out: solubility without HP-β-CD (value in brackets) (converted)) was 143 µM (≈ 60.3 µg/mL), the solubility at 60 min ([2]; thermodynamic from solid, 25 °C, pH 3.6 sodium acetate buffer, with HP-β-CD, read-out: S0 (solubility with HP-β-CD)) was 68 ± 40 µM (≈ 28.7 µg/mL) and the solubility at 60 min ([2]; thermodynamic from solid, 25 °C, pH 6.5 sodium phosphate buffer, with HP-β-CD, read-out: S0 (solubility with HP-β-CD)) was 52 ± 24 µM (≈ 21.9 µg/mL). It also gave a solubility at 60 min ([2]; thermodynamic from solid, 25 °C, pH 8.5 sodium borate buffer, with HP-β-CD, read-out: S0 (solubility with HP-β-CD)) of 90 ± 50 µM (≈ 37.9 µg/mL), a solubility at 60 min ([2]; thermodynamic from solid, 37 °C, pH 3.6 sodium acetate buffer, with HP-β-CD, read-out: S0 (solubility with HP-β-CD)) of 90 ± 50 µM (≈ 37.9 µg/mL) and a solubility at 60 min ([2]; thermodynamic from solid, 37 °C, pH 6.5 sodium phosphate buffer, with HP-β-CD, read-out: S0 (solubility with HP-β-CD)) of 15 ± 9 µM (≈ 6.32 µg/mL). It also gave a solubility at 60 min ([2]; thermodynamic from solid, 37 °C, pH 8.5 sodium borate buffer, with HP-β-CD, read-out: S0 (solubility with HP-β-CD)) of 14 ± 10 µM (≈ 5.9 µg/mL), a solubility at 60 min ([2]; thermodynamic from solid, 60 °C, pH 3.6 sodium acetate buffer, with HP-β-CD, read-out: S0 (solubility with HP-β-CD)) of 41 ± 20 µM (≈ 17.3 µg/mL) and a solubility at 60 min ([2]; thermodynamic from solid, 60 °C, pH 6.5 sodium phosphate buffer, with HP-β-CD, read-out: S0 (solubility with HP-β-CD)) of 41 ± 20 µM (≈ 17.3 µg/mL). The solubility at 60 min ([2]; thermodynamic from solid, 60 °C, pH 8.5 sodium borate buffer, with HP-β-CD, read-out: S0 (solubility with HP-β-CD)) was 283 ± 27 µM (≈ 119 µg/mL), the DPPH antioxidant activity [3] was 34.62 ± 3.8% and the “ABTS^•+ antioxidant activity” value [4] was 31.56 ± 1.6%.
